Test results as given in doi:10.1101/2022.04.11.487889v1 (biorxiv, 2022).

Target: T1, recombinant human PRDX6 (peroxiredoxin 6) (Homo sapiens, UniProt P30041)
T1 sequence (P30041 1-224): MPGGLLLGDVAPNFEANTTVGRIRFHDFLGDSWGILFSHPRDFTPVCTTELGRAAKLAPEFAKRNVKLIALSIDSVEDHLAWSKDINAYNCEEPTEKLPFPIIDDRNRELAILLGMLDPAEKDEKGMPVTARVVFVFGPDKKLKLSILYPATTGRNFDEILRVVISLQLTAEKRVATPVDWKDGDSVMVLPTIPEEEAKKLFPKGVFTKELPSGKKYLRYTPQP
Experiment: radioactive PLA2 assay, […]-DPPC liposomes, scintillation counting
Type: biochemical

- IC50: ~500 nM
Structure (SMILES): CCN(CC)CCN(Cc1ccc(-c2ccc(C(F)(F)F)cc2)cc1)C(=O)Cn1c(SCc2ccc(F)cc2)nc(=O)c2c1CCC2 [Darapladib]
